Reference: patent US8063018B2, “Bivalent thrombin binding molecules comprising linkers” (National Research Council of Canada, priority 2004, dated 2011)
“And” between values parts separate entries of the source, which are not always exact repeats. Identical values can stand only once. Like-named read-outs stand apart in the source and are kept apart here. Values belong to the compound of their own block, whether it stands above or below them. Non-standard residues stand in square brackets, D forms with d. Primed or numbered codes have the meaning given here. No end group written: not given here. *: point of attachment. Benzenesulfonyl(4-tBu) = CC(C)(C)c1ccc(S(=O)(=O)*)cc1; dPip′ = not defined here

Legend:
thrombin [1] = target: T1, thrombin (Homo sapiens, UniProt P00734); assay: Fibrinogen clotting assay catalyzed by thrombin; assay type: biochemical; conditions: for IC50: IC50, nM (37° C.), 37° C., concentration needed to double the clotting time; for Clotting onset time: 150 nM peptide, 0.6 nM thrombin
thrombin [2] = target: T1, thrombin; assay: Kinetic amidolytic assay with chromogenic substrate S-2238 (inhibition constants); assay type: biochemical
Procedure: Peptides were freeze-dried and their identity was confirmed by ion-spray mass spectrometry. Clotting assays were carried out by use of the protocols described previously (DiMaio and others, 1990, 21698-21703; Witting and others, 1992, 737-743). The assay employs bovine plasma fibrinogen dissolved at 0.1% in 50 mM Tris-Cl, 100 mM NaCl, 0.1% PEG-8000 at pH 7.6 (i.e. the clotting buffer). Each assay mixture contained a certain concentration of the peptide, and the reaction was started by the addition of human thrombin to a final concentration of 0.6-1.2 nM. Optical absorbance increase at 420 nm caused by fibrin clot formation was measured at 25° C. or 37° C. using the Spectramax plate reader. The onset clotting time was determined as an intersection of the baseline and the extrapolated linear portion of the OD change curve. The concentration of a peptide needed to double the clotting time was defined as IC50 (DiMaio and others, 1990, 21698-21703). Kinetic amidolytic curves were obtained in clotting buffer at 25° C. using eight inhibitor concentrations and three to five concentrations of the chromogenic substrate S-2238 (Chromogenix) (DiMaio and others, 1990, 21698-21703). Inhibition constants were extracted from Lineweaver-Burk equation by using weighted linear regression. Errors in Ki determination were estimated by using Monte-Carlo sampling with 1-3% variance of the experimental points. Peptide concentrations were determined spectrophotometrically using predicted extinction coefficients at 278 nm (Gill and von Hippel, 1989, 319-326).

α-thrombin = α-thrombin (Homo sapiens, UniProt P00734); assay: Effect of calcium on inhibition of the amidolytic activity of thrombin (S-3266); assay type: biochemical; design: chromogenic substrate proteolysis by human α-thrombin; conditions: 50 and 100 mM calcium, 0.6 nM thrombin, 25° C.
thrombin [3] = target: T1, thrombin; conditions: cited from earlier work
[4] = Calcium binding followed by proton NMR; conditions: CaCl2 titration, pH 5.5
Procedure: Looking at the results in FIG. 6, panels a, b, c, d show changes in the proton NMR spectra of Ac-[…]NH2 (SEQ. ID. NO. 109) (P3230, panels a, b) and Ac-[…]NH2 (SEQ. ID. NO. 110) (P3231, panels c, d) upon the addition to the initial ˜450 μL of the corresponding peptide in 20 mM sodium acetate-d3 buffer, pH 5.5, containing 10% D2O, of 1 μL (final CaCl2 concentration ˜0.22 mM), additional 2 μL (final CaCl2 concentration ˜0.66 mM), additional 10 μL (final CaCl2 concentration ˜2.8 mM) of 100 mM CaCl2, and additional 10 μL (final CaCl2 concentration ˜23.9 mM) of 1 M CaCl2. Panels e and f show changes in the proton NMR spectrum of a disulfide-linked peptide Bbs-Arg-(D-Pip)-Gly-Cys . . . […](SEQ. ID. No. 16) upon the addition to the initial volume of ˜450 μL of 1 μL (final CaCl2 concentration ˜0.22 mM), additional 2 μL (final CaCl2 concentration ˜0.66 mM) of 100 mM CaCl2, and additional 10 μL (final CaCl2 concentration ˜22.2 mM) of 1 M CaCl2.
An inhibitor with a linker known to bind specific metal ions will be affected by the presence of these ions in solution. Two peptides homologous to the calcium-binding loop of troponin C were designed and established that they bind calcium ions in solution. The peptides have the following sequences—Ac-[…]NH2 (P3230) (SEQ. ID. NO. 109) and Ac-[…]NH2 (P3231) (SEQ. ID. NO. 110). The peptides were synthesized, purified and their identity was confirmed as described in Example 1. They were tested for calcium binding by use of NMR. For this both freeze-dried peptides were reconstituted at a concentration of approximately 0.5 mM in 20 mM sodium acetate-d3 buffer, pH 5.5, containing 10% D2O. Proton spectra of the peptides were recorded at 800 MHz, 15° C., before and after addition of increasing amounts of 0.1 and 1 M stock solutions of CaCl2 in the same buffer. FIGS. 6a,b,c,d show changes in the proton NMR spectra of these two peptides upon the addition to the initial volume of ˜450 μL of 1 μL (final CaCl2 concentration ˜0.22 mM), additional 2 μL (final CaCl2 concentration ˜0.66 mM), additional 10 μL (final CaCl2 concentration ˜2.8 mM) of 100 mM CaCl2, and additional 10 μL (final CaCl2 concentration ˜23.9 mM) of 1 M CaCl2. The changes in the spectra confirm binding of calcium with affinity in mM range.
One of the two designed peptides was used to construct a calcium-responsive bivalent thrombin inhibitor. The disulfide-linked bivalent thrombin inhibitor (corresponding to SEQ. ID. NO. 91) prepared by cross-oxidation of cysteine thiol groups from two peptides Bbs-Arg-(D-Pip)-Gly-Cys (SEQ. ID. NO. 4) and […](SEQ. ID. NO. 114) (preparation described in Example 1) was tested for its ability to bind calcium and inhibit amidolytic reaction in the presence and absence of calcium. […]

[5] = target: T2, SH2 domain from the Grb4 adaptor protein (Mus musculus, UniProt O55033); conditions: tyrosine-phosphorylated state; read-out: Affinity for the SH2 domain from Grb4; cited from earlier work
T2 sequence (O55033 285-379 limits assumed): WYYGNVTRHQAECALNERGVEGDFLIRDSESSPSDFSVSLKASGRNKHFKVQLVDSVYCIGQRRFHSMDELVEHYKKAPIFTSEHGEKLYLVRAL

CaCdc42 (R150K) = target: T3, CaCdc42 (R150K) (Candida albicans, UniProt P0CY33, R150K); assay: Fluorescence titration of sNBD-labeled, GMPPCP-loaded CaCdc42 (R150K) with CRIB peptides; assay type: binding
T3 construct: made in house; host or cells: E. coli BL21
Procedure: In order to construct a bivalent peptide ligand for Candida Cdc42 (CaCdc42) (with a suitable linker) (FIG. 12), the binding affinities of component peptides derived from the CRIB domains of Candida Cla4 and Step 20 were determined. Residue K150 of the R150K CaCdc42 mutant was covalently modified with the fluorescent probe, sNBD (Molecular Probes, Eugene, Oreg.), essentially as described by Nomanbhoy and Cerione (Nomanbhoy, T. and Cerione, R. A., 1999, 15878-15884.). The stoichiometry of the fluorescent probe per protein molecule was estimated at 1.13, based on protein concentration determined with ε280nm=13,610 M^−1 cm^−1 (Gill, S. C. and von Hippel, P. H., 1989, 319-326), and using the absorbance of the sNBD moiety of ε463nm=22,000 M^−1 cm^−1. Interaction of the CRIB peptides with sNBD-labeled CaCdc42 was monitored using extrinsic fluorescence measurements with a Hitachi F-2500 fluorescence spectrophotometer. Samples of sNBD-labeled, activated CaCdc42 were added in the assay buffer (50 mM phosphate, pH 6.8, 50 mM NaCl and 5 mM MgCl2) to a cuvette being continuously stirred. The protein concentration was 1 μM. Individual CRIB peptide dissolved in the same assay buffer was added drop-wise to the cuvette. The mixture was excited at 488 nm with an excitation slit width of 5 nm. The emission spectra were scanned from 510 nm to 590 nm. The fluorescence emission intensity at the emission maximum 545 nm was determined from each spectrum and the final value was obtained by averaging the values from five scans of the same sample. […]
The Kd values for the binding of the CRIB peptides to sNBD-labeled activated CaCdc42 were determined by fitting the fluorescence titration data to a simple bimolecular association model as described by Leonard et al (Leonard, D. A., and others, 1997, 1173-1180). […]
[formula] The fluorescence intensity (F) is related to the dissociation constant, Kd as follows,
[formula] where F0 and Ft are the fluorescence intensities at the starting and end points of the titration, respectively. […] Average Kd values were determined from multiple independent measurements.

T3 sequence (P0CY33 1-178 R150K): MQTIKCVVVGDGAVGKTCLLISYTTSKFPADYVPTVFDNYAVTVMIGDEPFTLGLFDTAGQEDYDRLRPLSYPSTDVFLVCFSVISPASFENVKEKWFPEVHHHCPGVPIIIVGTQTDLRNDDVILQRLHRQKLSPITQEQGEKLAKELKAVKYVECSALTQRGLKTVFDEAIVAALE

Compound: CC[C@H](C)[C@H](NC(=O)[C@H](CCC(=O)O)NC(=O)[C@H](CCC(=O)O)NC(=O)[C@H](Cc1ccccc1)NC(=O)[C@H](CC(=O)O)NC(=O)CNC(=O)[C@H](CO)NC(=O)CNC(=O)[C@H](CO)NC(=O)CNC(=O)[C@H](CO)NC(=O)CNC(=O)[C@H](CO)NC(=O)CNC(=O)[C@H]1CCCCN1C(=O)[C@H](CCCNC(=N)N)NS(=O)(=O)c1ccc(C(C)(C)C)cc1)C(=O)N1CCC[C@H]1C(=O)N[C@@H](CCC(=O)O)C(=O)N[C@@H](CCC(=O)O)C(=O)N[C@@H](Cc1ccc(O)cc1)C(=O)N[C@@H](CC(C)C)C(=O)N[C@@H](CCC(N)=O)C(=O)O [P3150]
IC50 (thrombin [1]): 0.5 ± 0.1 nM
Ki (thrombin [2]; 25° C., S-2238, clotting buffer, read-out: KI, nM (25° C.)): 0.5 ± 0.2 nM
Effect of calcium on inhibition potency (α-thrombin): no visible effect

Compound: CC[C@H](C)[C@H](NC(=O)[C@H](CC(C)C)NC(=O)[C@H](CCCCN)NC(=O)[C@H](CCC(N)=O)NC(=O)[C@H](CCC(=O)O)NC(=O)CNC(=O)[C@H]1CCCCN1C(=O)[C@H](CCCNC(=N)N)NS(=O)(=O)c1ccc(C(C)(C)C)cc1)C(=O)N[C@@H](CO)C(=O)N[C@@H](CCC(=O)O)C(=O)N[C@@H](CCC(=O)O)C(=O)N[C@@H](CC(=O)O)C(=O)N[C@@H](CC(C)C)C(=O)NCC(=O)N[C@@H](CC(=O)O)C(=O)N[C@@H](Cc1ccccc1)C(=O)N[C@@H](CCC(=O)O)C(=O)N[C@@H](CCC(=O)O)C(=O)N[C@H](C(=O)N1CCC[C@H]1C(=O)N[C@@H](CCC(=O)O)C(=O)N[C@@H](CCC(=O)O)C(=O)N[C@@H](Cc1ccc(O)cc1)C(=O)N[C@@H](CC(C)C)C(=O)N[C@@H](CCC(N)=O)C(=O)O)[C@@H](C)CC [P3182]
Effect of antibody 9E10 on inhibitory potency (thrombin [1]; 150 nM inhibitor, ~1.2 μM 9E10): reversed the inhibitory potency
Clotting onset time (thrombin [1]; 1.2 μM anti-c-myc antibody 9E10): approximately 230 s
Clotting onset time (thrombin [1]; no antibody): approximately 530 s
IC50 (thrombin [1]): ~25 nM
Ki (thrombin [2]): 66 ± 13 nM

Compound: Bbs-Arg-(D-Pip)-Gly ({Benzenesulfonyl(4-tBu)}-Arg-[dPip′]-Gly) [H1]
KI of the constituent binding moiety (thrombin [3]; monovalent moiety alone): low μM range

Affinity of calcium binding [4]: mM range
Effect of calcium on inhibition potency (α-thrombin; listed as SEQ. ID. NO. 91): altered inhibition
Effect of calcium on inhibition potency (α-thrombin; listed as calcium-responsive disulfide-linked bivalent thrombin inhibitor): decreased
Compound: Bbs-Arg-(D-Pip)-Gly-Cys . . . Cys-Asp-Lys-Asn-Ala-Asp-Gly-Trp-Ile-Asp-Asn-Gly-Asp-Phe-Glu-Glu-Ile-Pro-Glu-Glu-Tyr-Leu-Gln (CDKNADGWIDNGDFEEIPEEYLQ; not fully specified (N-terminus); printed as Bbs-Arg-(D-Pip)-Gly-Cys . . . Cys-Asp-Lys-Asn-Ala-Asp-Gly-Trp-Ile-Asp-Asn-Gly-Asp-Phe-Glu-Glu-Ile-Pro-Glu-Glu-Tyr-Leu-Gln; also: N-terminal part Bbs-Arg-(D-Pip)-Gly-Cys . . . precedes Cys1, intervening residues not given here) [3243-3255]

Compound: CPHYEKVSG [ephrinB2301-309, peptide derived from the ephrinB cytoplasmic tail]
Kd [5]: 200 nM

Affinity of calcium binding [4]: mM range
Compound: DKNADGWIDNGDFE [P3231]

Affinity of calcium binding [4]: millimolar range
Compound: DKNADGWIDNGDFE [SEQ. ID. NO. 17]

Affinity of calcium binding [4]: mM range
Compound: DKNADGWIDNGEFE [P3230]

Compound: EVNIKISTPFNAKHLAHVGIDDNGNFTGLPDTWKSLLQHSKIT [mCst20-cCla4]
Kd (CaCdc42 (R150K)): 2640 ± 200 nM

Compound: EVNIKISTPFNAKHLAHVGIDDNGSYTGLPIEWERLLSASGIT [eCst20]
Kd (CaCdc42 (R150K)): 46 nM

Compound: GGNSGFPGPINFTHKVHVGFDRKSLTIYAQVQKNFTGLPDTWKSLLQHSKIT [eCla4-SLAM, GGNSGFPGPINFTHKVHVGFDRKSLTIYAQVQKNFTGLPDTWKSLLQHSKIT]
Kd (CaCdc42 (R150K)): 127 ± 70 nM

Compound: WDPRPQRHNDGDFEEIPEEYLQ [SEQ. ID. NO. 18]
Ki (thrombin [3]; subject of another patent application, read-out: KI for thrombin inhibition): ~17 nM and 17 nM
